Columns and labels:
[1] = In vitro test of NO uptake: manometer pressure and IR spectrum of freeze-dried product; type: binding; conditions: aqueous solution under argon, 20° C.-24° C., NO gas in headspace, one hour
Procedure: The resulting solution was placed in a three-necked pear-shaped flask and stirred by a magnetic stirrer at constant speed of 1000 rpm, at a constant temperature in the range 20° C.-24° C. A manometer was attached to the flask, and purified, dried nitric oxide gas (known volume in the range 3-5cm^3) was introduced via a septum, using a gas syringe, at atmospheric pressure into the headspace above the reaction solution. The pressure within the flask was recorded periodically over a period of one hour.
A control experiment was carried out according to the above but without any complex present.
On completion of each in vitro test, the reaction solution was freeze-dried. An infrared spectrum of the freeze-dried product provided information on metal-NO bond formation.

[2] = tested on: murine (RAW264) macrophage cell lines; experiment: In vitro cell culture test: available nitric oxide (nitrite+nitrate) in activated macrophages; type: cell-based; conditions: LPS + interferon γ activated RAW264, 18 hours
Procedure: Concurrently, test compounds made up in MEM were added at non-cytotoxic concentrations. Control cells as above, which were activated to produce nitric oxide as above, but to which no test compound was added, were used as a measure of the amouint of nitric oxide produced by the cells during the tests. (See […]. Powell, O. J. Vaughan, G. R. Henderson, B. A. Murrer, […]. Bisland, […], Ruthenium complexes as nitric oxide scavengers: a potential therapeutic approach to nitric oxide-mediated diseases, Br. J Pharmacol., 1997, 122, 1441-1449.) Background nitric oxide was assessed by measurement of nitrate and nitrite in cells which were not activated. Cell viability was confirmed by Trypan blue dye exclusion at the end of the incubation period. Nitric oxide was determined by measurement of nitrate and nitrite in the cell supernatant. These anions are the stable end-products of reactions of NO in solution. Such reactions may or may not be catalysed in biological systems. The sum of nitrite and nitrate concentrations gives the total NO production. […] Nitrate was determined by reducing nitrate to nitrite with a bacterial nitrate reductase from Pseudomonas oleovorans and then measuring nitrite with the Griess reaction. In the absence of test compounds nitrite concentration plus nitrate concentration is equal to total nitric oxide production. The effect of test compounds on available nitric oxide (measured as nitrite+nitrate) was determined. The reduction in available nitric oxide compared with the control level may be taken as an indication of the degree of binding of NO by the test compounds.

rat tail artery = experiment: Ex vivo test: perfused pre-contracted rat tail artery, vasoconstriction; conditions: for Vasoconstriction on application of test compound: 10 μM and 100 μM (Example 26 also 1000 μM); for % Vasoconstriction: artery pre-contracted with 6.5 μM phenylephrine; for Reversibility of the vasoconstriction: washout with Krebs solution
Text: In the ex vivo tests, segments of rat tail artery (0.8-1.5 cm) were dissected free from normotensive adult Wistar rats. The arteries were internally perfused with Krebs solution (mM: NaCl 118, KCl 4.7, NaHCO3 25, NaH2PO4 1.15, CaCl22.5, MgCl2 1.1, glucose 5.6 and gassed with 95% O2/5% CO2 to maintain a pH of 7.4) in a constant flow perfusion apparatus. A differential pressure transducer located upstream of the vessel detected changes in back pressure. The rat tail artery preparation was pre-contracted with 6.5 μM phenylephrine to give a physiologically normal pressure of 100-120 mm Hg. The pre-contracted vessels were then perfused with the test compound. The arteries were perfused with Krebs solution between applications of test compound to wash out the test compound.
Pressure changes in the system served to indicate artery vasoconstriction. The vasoconstriction is a direct result of the removal of endogenous nitric oxide (edrf) from the endothelial cells of the rat tail artery.

[3] = tested on: rat P22 carcinosarcoma grown in BD-IX rats; experiment: Tumour growth, vascularisation and plasma nitrite/nitrate in rats bearing P22 carcinosarcoma; type: in vivo; conditions: for Nitrite/nitrate levels at Day 28 / Tumour vascularisation (MVD), Mean Chalkey score: 50 mg/kg daily i.p. Day 10-Day 28; for Nitrite/nitrate levels at Day 28: Griess assay, untreated control 7.75; for Tumour vascularisation (MVD), Mean Chalkey score: anti-CD31 immunostaining, untreated control 13.0; for Tumour growth: 50 mg/kg daily intraperitoneal, Day 10-Day 28, male BD-IX rats
Procedure: The effect of AMD6245 (Example 113) and AMD6221 (Example 8) on tumour growth was assessed using the rat P22 carcinosarcoma grown in BD-IX rats (Kennovin et al., in Biology of Nitric Oxide, Vol. 4, (S. Moncada, M. Feelisch, R. Busse, and A. E. Higgs, eds.), Portland Press, London, 1994, pp. 473-479). The tumour was implanted subcutaneously on the dorsal surface of male BD-IX rats on Day 0. Tumour growth was measured daily using calipers and tumour volume calculated from the equation […] where X=the short tumour axis and Y=the long tumour axis. Tumours were measurable by Day 10. AMD6245 and AMD6221 were administered daily by intraperitoneal injection at a dose of 50 mg/kg from Day 10-Day 28. Tumour vascularisation (Microvascular Density or MVD) was measured by Chalkley point counting after immunostaining with anti-CD31 antibody (Vermeulen et al., Eur. J. Cancer, 32A, 2474-2484, (1996)). Nitrite/nitrate was measured by the Griess assay (see Table 4). These anions are the stable end products of NO in solution. Nitrate was first reduced to nitrite by […]. The sum of nitrite and nitrate gives the total NO production.

| Compound | Pressure decrease indicating binding of NO to the metal compound [1] | % Decrease of Available Nitric Oxide ([2]; 100 μM test compound) | Vasoconstriction on application of test compound (rat tail artery) | % Vasoconstriction (rat tail artery; 10 μM) | % Vasoconstriction (rat tail artery; 100 μM) | Reversibility of the vasoconstriction (rat tail artery) | further results |
| --- | --- | --- | --- | --- | --- | --- | --- |
| O.O.O=C([O-])CN(CCN(CC(=O)[O-])CC(=O)O)CC(=O)[O-].[Cl-].[K+].[Ru+3] [Example 1, K[Ru(hedta)Cl]2H2O] | pressure decrease indicated binding of NO | 75% |  |  |  |  | % Decrease of Available Nitric Oxide ([2]; 25 μM test compound): 12%; % Decrease of Available Nitric Oxide ([2]; 50 μM test compound): 23% |
| CC(=O)C=C(C)[O-].O=C([O-])CN(CCN(CC(=O)O)CC(=O)O)CC(=O)[O-].[Ru+3] [Example 2, [Ru(H2edta)(acac)]] |  | 82% | dose-dependent vasoconstriction | 20% | 69% | reversible by washout |  |
| O.O=C([O-])CN(CCO)CCN(CC(=O)[O-])CC(=O)[O-].[Cl-].[K+].[Ru+3] [Example 3, K[Ru(hedtra)Cl]H2O] | pressure decrease indicated binding of NO | 42% | dose-dependent vasoconstriction | 17% | 59% | reversible by washout |  |
| O.O=C([O-])c1cccc(C(=O)[O-])n1.O=C([O-])c1cccc(C(=O)[O-])n1.[K+].[Ru+3] [Example 4, K[Ru(dipic)2]H2O] | pressure decrease indicated binding of NO |  |  |  |  |  |  |
| O.O=C([O-])CN(CCN(CC(=O)O)CC(=O)O)CC(=O)[O-].[Cl-].[Cl-].[K+].[Ru+3] [Example 6, K[Ru(H2edta)Cl2]H2O] | pressure decrease indicated binding of NO | 77% |  |  |  |  |  |
| CC(=O)[O-].CC(=O)[O-].CC(=O)[O-].CC(=O)[O-].[Cl-].[Ru+3].[Ru+3] [Example 14, [Ru2(OAc)4]Cl] |  | 47% | dose-dependent vasoconstriction | 11% | 40% | reversible by washout |  |
| Cc1occc(=O)c1[O][Ru]([O]c1c(C)occc1=O)[O]c1c(C)occc1=O [Example 26, [Ru(maltol)3]] |  | 71% | dose-dependent vasoconstriction | 10% | 18% | reversible by washout | % Vasoconstriction (rat tail artery; 1000 μM): 25% |
| K[Ru(H2dtpa)Cl]H2O [Example 8] | pressure decrease indicated binding of NO |  |  |  |  |  | Nitrite/nitrate levels at Day 28 [3]: 5.09 μmoles/litre plasma; Tumour vascularisation (MVD), Mean Chalkey score [3]: 5.3; Tumour growth [3]: inhibited the growth |
| K[Ru(hnta)2]½H2O [Example 7] | pressure decrease indicated binding of NO |  |  |  |  |  |  |
| [Ru(Hedta)]H2O [AMD6245] |  |  |  |  |  |  | Nitrite/nitrate levels at Day 28 [3]: 3.88 μmoles/litre plasma; Tumour vascularisation (MVD), Mean Chalkey score [3]: 3.0; Tumour growth [3]: inhibited the growth |
| [Ru(NH3)5Cl]Cl2 [Example 15] |  | 86% | dose-dependent vasoconstriction | 77% | 86% | reversible by washout |  |

Reference: patent US20020049190A1, “Pharmaceutical compositions comprising metal complexes” (priority 1999, published 2002)
